# Results: patent US11541105B2, “Compositions and methods for disrupting biofilm formation and maintenance” (The Research Foundation for the State University of new York, priority 2018, dated 2023)
# Legend:
# P. aeruginosa biofilms [1] = experiment: Biofilm dispersion in 24-well plates, crystal violet staining of remaining biofilm biomass; format: cell-based, Pseudomonas aeruginosa; conditions: controls: heat-inactivated PDH increasing concentrations; cofactors; acetyl-CoA 0.2 mM; NADH 2 mM; lactate 10 mM
# Description: P. aeruginosa biofilms grown for 4 days in 24-well plates were exposed to pyruvate-depleting conditions. This was accomplished by exposing biofilms to increasing concentration of the enzyme pyruvate dehydrogenase (PDH) having a specific activity of 0.57 U/mg. PDH catalyzes the conversion of pyruvate to acetyl-CoA in the presence of CoA and NAD^+. Specifically, biofilms were exposed to 5, 10, and 20 mU (8.7, 17.4, and 32.8 mg enzyme) of PDH in the presence of NAD^+ and CoA. Biofilms grown in LB but left untreated were used as controls. Following overnight incubation, the remaining biofilm was stained using crystal violet.
# Biofilms were grown in a 24-well plate system modified from the procedure described by Caiazza and O'Toole (2004) to elucidate the role of pyruvate in biofilm formation and biofilm dispersion.
# Overnight cultures grown in LB medium were adjusted to an OD600 of 0.05 in fresh 5-fold diluted LB VBMM and grown at 37° C. and rotated at 220 r.p.m. in 24-well microtiter plates at a 45° angle, ensuring that the bottom of the wells is at the air-liquid interface, with the medium exchanged every 12 h.
# For biofilm dispersion, biofilms were first grown for 4 days after which time the growth medium was supplemented with 10 mU porcine pyruvate dehydrogenase, cofactors (1 mM b-NAD, 1 mM sodium Co-A, 20 μM TPP) and allowed to incubate for an additional 16 h.
# P. aeruginosa biofilms [2] = experiment: Microscopy (confocal, brightfield) of biofilm architecture and microcolony void formation; format: cell-based, Pseudomonas aeruginosa; conditions: 4-day biofilms, PDH 10 mU plus 500 uM SNP as NO source, 16 h
# Excerpt: To determine how exposure to PDH accomplished a reduction in the biofilm biomass, the remaining biofilm architecture was visually analyzed by confocal microscopy. Relative to untreated biofilms, biofilms exposed to PDH were not only characterized by an overall reduced biofilm biomass but by microcolonies having central voids (FIGS. 2E3 and 2F2). Void formation has previously linked with biofilm dispersion, a process in which sessile, surface-attached organisms liberate themselves from the biofilm to return to the planktonic state. […] In contrast, the vast majority of microcolonies by untreated biofilms were intact (FIG. 2E1), with only less than 8% of the microcolonies featuring central void formation (FIG. 2G). […]
# Differences in the biofilm architecture were visualized by crystal violet staining or microscopy (brightfield, confocal laser scanning). Differences in drug susceptibility were evaluated by viability count.
# FIGS. 15A-15F show the effect of PDH nanoparticles (NP) on biofilms. […] Biofilm biomass was quantitatively determined by confocal microscopy and COMSTAT analysis prior/post 24 h PDH treatment. […]
# Biofilms were grown for 4 days in 24-well polystyrene plates in five-fold diluted LB. […] Number of microcolonies as percent of the total colonies counted per treatment group is shown. […]
# P. aeruginosa biofilms [3] = experiment: Biofilm susceptibility assay, viability count; format: cell-based, Pseudomonas aeruginosa; conditions: 4-day biofilms, tobramycin 100 μg/ml, PDH 10 mU where present, overnight
# Description: It is well established that planktonic cells are more susceptible to antimicrobial agents than their counterparts growing as a biofilm, and that dispersion coincides with bacteria transitioning to the planktonic mode of growth. […] P. aeruginosa biofilms grown for 4 days in 24-well plates were exposed to 100 μg/ml tobramycin in the absence of presence of PDH. Following overnight incubation, the number of viable biofilm cells were determined using viability count. […] Tobramycin in the presence of 10 mU PDH coincided with a reduction in the biofilm biomass to 3.5×10^3 cells/biofilm (FIG. 12A), with the reduction in the viable cells being equivalent to an overall 5.9-log reduction in the biofilm biomass relative to untreated biofilms. […] For susceptibility assays, biofilms were grown as for dispersion assays, but following 4 days of growth, the growth medium was supplemented the aminoglycoside antibiotic tobramycin (100 μg/ml), 10 mU porcine pyruvate dehydrogenase, and cofactors (1 mM b-NAD, 1 mM sodium Co-A, 20 μM TPP). Untreated biofilms or biofilms only exposed to cofactors alone were used as controls. Differences in the biofilm architecture were visualized by crystal violet staining or microscopy (brightfield, confocal laser scanning). Differences in drug susceptibility were evaluated by viability count.
# P. aeruginosa ATCC 27312 = experiment: Porcine burn wound biofilm infection model; format: in vivo, Pseudomonas aeruginosa
# Description: The well-known clinical burn wound isolate P. aeruginosa ATCC 27312 was employed.
# Burn wounds were inoculated with 25 μl of a standardized P. aeruginosa suspension harboring 10^6 CFU/ml and allowed to establish biofilms for 24 h. Infected wounds were subsequently treated daily with 100 and 200 mU PDH in the absence of presence of 100 μg/ml tobramycin. Untreated wounds and wounds only exposed to carrier solution were used as controls. Following 3 and 6 days of treatment, bacterial cells present in wounds were harvested using a flush and scrub technique that separates biofilm bacteria from planktonic bacteria, by flushing the non-adherent (planktonic) bacteria off the wound, followed by scrubbing of the wound to remove adherent biofilm-associated bacteria from the wound bed.
# Second degree porcine burn wounds were infected with P. aeruginosa ATCC® 27312™. […] Then, bacterial cells were removed from the wounds and the number of viable cells, as shown in (CFU) per wound determined using viability counts. […] Experiments are representative data obtained using 3 wounds per treatment group (n=3). Error bars represent standard deviation.
smiles,measurement,setting,value
NC(=O)c1ccc[n+]([C@@H]2O[C@H](COP(=O)([O-])OP(=O)(O)OC[C@H]3O[C@@H](n4cnc5c(N)ncnc54)[C@H](O)[C@@H]3O)[C@@H](O)[C@H]2O)c1 [NAD+],effect on biofilm biomass relative to untreated biofilms,P. aeruginosa biofilms [1],no effect
NC(=O)C1=CN([C@@H]2O[C@H](COP(=O)(O)OP(=O)(O)OC[C@H]3O[C@@H](n4cnc5c(N)ncnc54)[C@H](O)[C@@H]3O)[C@@H](O)[C@H]2O)C=CC1 [NADH],effect on biofilm biomass relative to untreated biofilms,P. aeruginosa biofilms [1],did not result in increased biofilm biomass accumulation
CC(=O)SCCNC(=O)CCNC(=O)[C@H](O)C(C)(C)COP(=O)(O)OP(=O)(O)OC[C@H]1O[C@@H](n2cnc3c(N)ncnc32)[C@H](O)[C@@H]1OP(=O)(O)O [acetyl-CoA],effect on biofilm biomass relative to untreated biofilms,P. aeruginosa biofilms [1],did not result in increased biofilm biomass accumulation
CC(O)C(=O)O (stereo not drawn) [lactate],effect on biofilm biomass relative to untreated biofilms,P. aeruginosa biofilms [1],no difference
[N]=O [nitric oxide],effect on PDH-induced dispersion of biofilms (microcolonies with void formation),P. aeruginosa biofilms [2],can enhance
NC[C@H]1O[C@H](O[C@H]2[C@H](O)[C@@H](O[C@H]3O[C@H](CO)[C@@H](O)[C@H](N)[C@H]3O)[C@H](N)C[C@@H]2N)[C@H](N)C[C@@H]1O [tobramycin],log reduction of the biofilm biomass (viable cells) relative to untreated,P. aeruginosa biofilms [3],2.5 log
same,number of viable cells remaining,P. aeruginosa biofilms [3]; untreated 2.4×10^8,1.2×10^5 cells per biofilm
same,log reduction of P. aeruginosa biofilms present in porcine burn wounds,"P. aeruginosa ATCC 27312; as stated in the summary, tobramycin with or without pyruvate-depleting conditions",2.5 log
same,log reduction in viable biofilm cells (scrub) relative to untreated,P. aeruginosa ATCC 27312; tobramycin 100 μg/ml daily,2 log
